Reference: patent US20100210649A1, “PYRIDAZINONES AND FURAN-CONTAINING COMPOUNDS” (Sloan-Kettering Institute for Cancer Research, priority 2006, published 2010)
Where two headings read alike, the source gives them in different places.

Assays:
Type in all cases: cell-based, human
Conditions in all cases: for inhibition at 10 µM: Homo sapiens
H1650 = test: Non Small Cell Lung Cancer proliferation assay (Alamar Blue reduction), H1650
Description: (§1) These cells have a doubling time of 1-2 days. All cell types are adherent and grow in colonies. The cells should be kept at a density between 50,000 cells/mL -500,000 cells/mL to provide for optimum growth and adequate nutrition. The cell line should be maintained at 37° C. in a humidified atmosphere with 5% CO2 in a sterile cell culture incubator.
(§2) Non Small Cell Lung Cancer Proliferation Assay.
(§3) High Controls for this assay are made by treating Non Small Cell Lung Cancer cells with 5 ul of 10% DMSO. [Final concentration in this assay is 1% DMSO].
(§4) Important Note: All compounds for testing in this assay should be done at the final concentration of 1% DMSO.
(§5) After addition, the cells are placed in cell culture incubator at 37° C. for 48 hours for complete treatment.
(§6) After drug treatment, cytotoxicity is measured by Alamar Blue reduction.
(§7) The cells are incubated for 48 hours at 37° C. to complete the Alamar Blue reduction.
(§8) The final step in the assay is to measure the amount of Alamar Blue reduction. […] The Alamar Blue fluorescence is measured at an excitation of 530 nm and emission of 590 nm.
(§9) For the NSCLC project, the cell based assay was screened against a small molecule library of approximately 200,000 compounds. The compound library is stored in our automated robotic freezer (Biophile) at −20° C. in 100% DMSO. Compound freeze and thaw cycles are kept to a minimum. […] This assay was performed on a fully automated linear track robotic platform (CRS F3 Robot System, Thermo Electron Corp., Ontario, Canada) utilizing several integrated peripherals for plate handling, liquid dispensing, and readout detection. […] The microplates are then placed at 37° C. for 48 hours to complete treatment of cells with compounds. Next, 5 ul of alamar blue was added using a liquid dispenser (Flexprop Precision Dispenser, Perkin Elmer, Mass., USA) and incubated for 48 hours at 37° C. The alamar blue prompt fluorescence was measured on Victor V (Victor^3 V, Perkin Elmer, Mass., USA) and output data files were loaded into ORIS (Oncology Research Informatics System, MSKCC, NY, USA), a screening data acquisition and analysis platform.
(§10) The dose response studies were done with the following standard procedure. First, the cells were counted and dispensed at 250 cells/well into 384-well microplates with compound. The cells were incubated for 48 hours at 37 C to complete treatment, and then alamar blue was added for an additional 48 hours. Finally, alamar blue reduction was measured and the data was loaded into ORIS, our data screening acquisition platform.

H1975 = test: Non Small Cell Lung Cancer proliferation assay (Alamar Blue reduction), H1975
Description: as §1, §2, §3, §4, §5, §6, §7, §8, §9, §10

H2030 = test: Non Small Cell Lung Cancer proliferation assay (Alamar Blue reduction), H2030
Description: as §1, §2, §3, §4, §5, §6, §7, §8, §9, §10

H3255 = test: Non Small Cell Lung Cancer proliferation assay (Alamar Blue reduction), H3255
Description: as §1, §2, §3, §4, §5, §6, §7, §8, §9, §10

[1] = NCI-H1650, primary screening, 10 μM compound in 1% DMSO (v/v), read-out: percentage inhibition H1650
[2] = NCI-H1975, primary screening, 10 μM compound in 1% DMSO (v/v), read-out: percentage inhibition H1975
[3] = NCI-H2030, primary screening, 10 μM compound in 1% DMSO (v/v), read-out: percentage inhibition H2030
[4] = NCI-H3255, primary screening, 10 μM compound in 1% DMSO (v/v), read-out: percentage inhibition H3255
[5] = NCI-H1650, primary screening, H1650, 10 μM compound in 1% DMSO (v/v), read-out: PRIMARY HTS [%] H1650 (percentage inhibition)
[6] = NCI-H1975, primary screening, H1975, 10 μM compound in 1% DMSO (v/v), read-out: PRIMARY HTS [%] H1975 (percentage inhibition)
[7] = NCI-H2030, primary screening, H2030, 10 μM compound in 1% DMSO (v/v), read-out: PRIMARY HTS [%] H2030 (percentage inhibition)
[8] = NCI-H3255, primary screening, H3255, 10 μM compound in 1% DMSO (v/v), read-out: PRIMARY HTS [%] H3255 (percentage inhibition)

Row | Compound | inhibition at 10 µM (H1650; [1]) [%] | inhibition at 10 µM (H1975; [2]) [%] | inhibition at 10 µM (H2030; [3]) [%] | inhibition at 10 µM (H3255; [4]) [%] | also measured
1 | O=C(Nc1ccc(I)cc1)c1ccc([N+](=O)[O-])o1 [compound 103710] | – | – | – | – | inhibition at 10 µM (H1650; NCI-H1650, read-out: PRIMARY HTS [%] H1650 (percentage inhibition)): 33%; inhibition at 10 µM (H1975; NCI-H1975, read-out: PRIMARY HTS [%] H1975 (percentage inhibition)): 17%; inhibition at 10 µM (H2030; NCI-H2030, read-out: PRIMARY HTS [%] H2030 (percentage inhibition)): -5%; inhibition at 10 µM (H3255; NCI-H3255, read-out: PRIMARY HTS [%] H3255 (percentage inhibition)): 4%
2 | O=c1c(Cl)c(Cl)cnn1-c1ccc(Cl)c(C(F)(F)F)c1 [compound 103719] | 45 | 102 | 94 | 76 | –
3 | O=c1c(Cl)c(Cl)c(O)nn1-c1ccccc1 [compound 103751] | 6 | -4 | -4 | 0 | –
4 | O=c1c(Cl)c(N2CCCC2)cnn1-c1ccccc1 [compound 103868] | -7 | -18 | -4 | -3 | –
5 | COc1cnn(-c2cccc(C(F)(F)F)c2)c(=O)c1Cl [compound 103872] | 17 | 9 | 2 | -25 | –
6 | CN(C)c1c(Cl)cnn(-c2ccccc2)c1=O [compound 103911] | -7 | -12 | -5 | -3 | –
7 | CCc1ccccc1NC(=O)c1ccc([N+](=O)[O-])o1 [compound 103960] | – | – | – | – | inhibition at 10 µM (H1650; [5]): 62%; inhibition at 10 µM (H1975; [6]): 41%; inhibition at 10 µM (H2030; [7]): 73%; inhibition at 10 µM (H3255; [8]): 68%
8 | COc1cnn(-c2ccccc2)c(=O)c1N(C)C [compound 103971] | 5 | -10 | 1 | -1 | –
9 | CCSc1cnn(-c2ccccc2)c(=O)c1Cl [compound 103997] | -15 | 98 | 9 | 2 | –
10 | CN(C(=O)c1ccc([N+](=O)[O-])o1)c1ccccc1 [compound 104003] | – | – | – | – | inhibition at 10 µM (H1650; [5]): -3%; inhibition at 10 µM (H1975; [6]): 18%; inhibition at 10 µM (H2030; [7]): 0%; inhibition at 10 µM (H3255; [8]): 5%
11 | O=c1c(Cl)c(Cl)cnn1-c1ccc(Cl)cc1 [compound 104004] | 1 | 98 | 75 | 90 | –
12 | O=C(Nc1cc(C(F)(F)F)ccc1Cl)c1ccc([N+](=O)[O-])o1 [compound 104039] | – | – | – | – | inhibition at 10 µM (H1650; [5]): 61%; inhibition at 10 µM (H1975; [6]): 69%; inhibition at 10 µM (H2030; [7]): 13%; inhibition at 10 µM (H3255; [8]): 6%
13 | CSc1cnn(-c2ccccc2)c(=O)c1Cl [compound 104185] | -9 | 22 | -2 | 1 | –
14 | O=c1c(Cl)c(Cl)cnn1-c1cccc(Cl)c1 [compound 104188] | -13 | 102 | -4 | 4 | –
15 | CCOc1cnn(-c2ccccc2)c(=O)c1Cl [compound 104217] | -15 | -7 | 6 | -1 | –
16 | CCOc1c(Cl)cnn(-c2ccccc2)c1=O [compound 104288] | -13 | 102 | 66 | 46 | –
17 | O=c1c(N2CCCC2)c(Cl)cnn1-c1ccccc1 [compound 104304] | 52 | 98 | 14 | 107 | –

Row | Compound | inhibition at 10 µM (H1650; [1]) [%] | inhibition at 10 µM (H1975; [2]) [%] | inhibition at 10 µM (H2030; [3]) [%] | inhibition at 10 µM (H3255; [4]) [%] | also measured
18 | COc1cnn(-c2cccc(C)c2)c(=O)c1Cl [compound 104325] | -31 | -12 | 2 | 4 | –
19 | COc1nn(-c2ccccc2)c(=O)c(Cl)c1Cl [compound 104332] | 51 | 99 | 87 | 82 | –
20 | COc1cnn(-c2ccc([N+](=O)[O-])cc2)c(=O)c1Cl [compound 104339] | -21 | -9 | -3 | 3 | –
21 | COc1cnn(-c2ccccc2)c(=O)c1Cl [compound 104386] | -12 | -11 | 6 | 0 | –
22 | COc1cnn(-c2cccc(Cl)c2)c(=O)c1Cl [compound 104390] | 15 | 4 | -6 | 34 | –
23 | COc1c(Cl)cnn(-c2cccc(C)c2)c1=O [compound 104415] | -20 | 15 | -3 | 9 | –
24 | CSc1cnn(-c2ccccc2)c(=O)c1SC [compound 104423] | -11 | -20 | -3 | 1 | –
25 | Cc1ccc(C(=O)Nc2ccc3ccccc3c2)o1 [compound 105503] | – | – | – | – | inhibition at 10 µM (H1650; [5]): -10%; inhibition at 10 µM (H1975; [6]): -13%; inhibition at 10 µM (H2030; [7]): -7%; inhibition at 10 µM (H3255; [8]): 0%
26 | Cc1ccc([N+](=O)[O-])cc1NC(=O)c1ccco1 [compound 107911] | – | – | – | – | inhibition at 10 µM (H1650; [5]): 8%; inhibition at 10 µM (H1975; [6]): -15%; inhibition at 10 µM (H2030; [7]): 2%; inhibition at 10 µM (H3255; [8]): 7%
27 | Cc1cccnc1NC(=O)c1ccc([N+](=O)[O-])o1 [compound 108321] | – | – | – | – | PRIMARY HTS [%] H1650 (percentage inhibition) (H1650; primary screening, H1650, 10 μM compound in 1% DMSO (v/v)): 38%; PRIMARY HTS [%] H1975 (percentage inhibition) (H1975; primary screening, H1975, 10 μM compound in 1% DMSO (v/v)): −7%; PRIMARY HTS [%] H2030 (percentage inhibition) (H2030; primary screening, H2030, 10 μM compound in 1% DMSO (v/v)): 6%; PRIMARY HTS [%] H3255 (percentage inhibition) (H3255; primary screening, H3255, 10 μM compound in 1% DMSO (v/v)): 2%
28 | O=C(Nc1ccc(NC(=O)c2ccc(Cl)cc2Cl)cc1)c1cc2ccccc2o1 [compound 109007] | – | – | – | – | inhibition at 10 µM (H1650; [5]): -6%; inhibition at 10 µM (H1975; [6]): -3%; inhibition at 10 µM (H2030; [7]): 3%; inhibition at 10 µM (H3255; [8]): 1%
29 | COc1c(Cl)cnn(-c2ccc(Cl)c(C(F)(F)F)c2)c1=O [compound 174405] | 13 | 28 | -9 | 32 | –
30 | CCSc1cnn(-c2ccccc2)c(=O)c1SCC [compound 174406] | 18 | 3 | -9 | 8 | –
31 | O=C(COc1cnn(-c2ccccc2)c(=O)c1Cl)c1ccc(Br)cc1 [compound 176702] | 29 | 26 | -14 | -21 | –
32 | COc1ccc(-n2nc(-n3cnc4ccccc43)c(C)c(C#N)c2=O)cc1 [compound 176963] | 11 | -5 | 4 | 17 | –
33 | O=C(COc1cnn(-c2ccccc2)c(=O)c1Cl)c1ccc(Cl)cc1 [compound 177215] | 6 | 25 | -9 | 13 | –
34 | O=c1c(Sc2ccc(Cl)cc2)cc(Cl)nn1-c1ccccc1 [compound 177261] | 14 | 16 | -8 | 8 | –
